In assay [1] the target is T1, Vasopressin V1b receptor (Homo sapiens) (UniProt P47901).
T1 sequence (whole entry): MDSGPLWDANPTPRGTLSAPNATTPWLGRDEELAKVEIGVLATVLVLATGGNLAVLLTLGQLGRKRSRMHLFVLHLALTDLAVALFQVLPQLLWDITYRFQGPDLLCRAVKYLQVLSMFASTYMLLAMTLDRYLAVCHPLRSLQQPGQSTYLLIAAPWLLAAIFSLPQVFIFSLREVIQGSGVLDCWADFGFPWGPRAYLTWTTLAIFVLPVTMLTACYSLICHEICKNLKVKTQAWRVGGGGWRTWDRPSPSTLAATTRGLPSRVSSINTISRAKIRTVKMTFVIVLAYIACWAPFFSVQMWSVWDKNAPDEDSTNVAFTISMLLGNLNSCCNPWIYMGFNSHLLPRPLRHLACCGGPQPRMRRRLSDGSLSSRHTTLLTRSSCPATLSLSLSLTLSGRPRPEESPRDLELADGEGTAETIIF
Briefly: Inhibition of Vasopressin V1B at 10 µM in the Eurofins-Panlabs radioligand binding assay (Eurofins_assay_287560). Also noted: ligand concentration 1 nM.

The target of assay [2] is T2, Oxytocin receptor (Homo sapiens) (UniProt P30559).
T2 sequence (whole entry): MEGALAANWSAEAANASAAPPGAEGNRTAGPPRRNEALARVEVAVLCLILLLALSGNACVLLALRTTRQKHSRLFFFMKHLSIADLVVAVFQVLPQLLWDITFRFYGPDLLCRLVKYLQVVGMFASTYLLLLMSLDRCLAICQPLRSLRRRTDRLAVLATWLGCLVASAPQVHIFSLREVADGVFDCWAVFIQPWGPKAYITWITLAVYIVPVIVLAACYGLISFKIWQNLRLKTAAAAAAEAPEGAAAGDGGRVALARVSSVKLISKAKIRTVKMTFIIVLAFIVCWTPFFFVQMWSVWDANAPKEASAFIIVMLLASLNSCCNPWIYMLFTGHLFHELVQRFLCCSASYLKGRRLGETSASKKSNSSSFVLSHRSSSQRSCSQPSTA
As to the kind of experiment: Inhibition of Oxytocin at 1 µM in the Eurofins-Panlabs radioligand binding assay (Eurofins_assay_260900). Also noted: ligand concentration 0.8 nM, non-specific ligand with concentration 1 µM Oxytocin, incubation time 2 h, incubation temperature 25°C.

For assay [3], the target named is Cyclin-Y/Cyclin-dependent kinase 16 (Homo sapiens) (UniProt Q00536+Q8ND76). As to the kind of experiment: Inhibition of CDK16/cyclinY(h) at 10.0 µM in the Eurofins Kinase panel. As to conditions: Compound concentration 10.0 uM. In kind it is protein-complex assay.
Assay [4] deals with Vascular endothelial growth factor receptor 3 (Homo sapiens) (UniProt P35916). Briefly: Inhibition of Flt4(h) at 10.0 µM in the Eurofins Kinase panel. The note with it: Compound concentration 10.0 uM.
The target in assay [5] is Vascular endothelial growth factor receptor 2 (Homo sapiens) (UniProt P35968). Briefly: Inhibition of KDR(h) at 10.0 µM in the Eurofins Kinase panel. As to conditions: Compound concentration 10.0 uM.
The target in assay [6] is Serine/threonine-protein kinase LATS2 (Homo sapiens) (UniProt Q9NRM7). As to the kind of experiment: Inhibition of LATS2(h) at 10.0 µM in the Eurofins Kinase panel. As to conditions: Compound concentration 10.0 uM.
The target of assay [7] is Serine/threonine-protein kinase WNK3 (Homo sapiens) (UniProt Q9BYP7). As to the kind of experiment: Inhibition of WNK3(h) at 10.0 µM in the Eurofins Kinase panel. As to conditions: Compound concentration 10.0 uM.
Assay [8] deals with Serine/threonine-protein kinase WNK4 (Homo sapiens) (UniProt Q96J92). Briefly: Inhibition of WNK4(h) at 10.0 µM in the Eurofins Kinase panel. As to conditions: Compound concentration 10.0 uM.
The target of assay [9] is 5-hydroxytryptamine receptor 1B (Homo sapiens) (UniProt P28222). As to conditions: Compound concentration 10.0 uM.
Assay [10] has as its target 5-hydroxytryptamine receptor 2B (Homo sapiens) (UniProt P41595). The note with it: Compound concentration 10.0 uM.
Assay [11] concerns the target 5-hydroxytryptamine receptor 6 (Homo sapiens) (UniProt P50406). The note with it: Compound concentration 10.0 uM.
Assay [12] has as its target T3, D(4) dopamine receptor (Homo sapiens) (UniProt P21917).
T3 sequence (whole entry): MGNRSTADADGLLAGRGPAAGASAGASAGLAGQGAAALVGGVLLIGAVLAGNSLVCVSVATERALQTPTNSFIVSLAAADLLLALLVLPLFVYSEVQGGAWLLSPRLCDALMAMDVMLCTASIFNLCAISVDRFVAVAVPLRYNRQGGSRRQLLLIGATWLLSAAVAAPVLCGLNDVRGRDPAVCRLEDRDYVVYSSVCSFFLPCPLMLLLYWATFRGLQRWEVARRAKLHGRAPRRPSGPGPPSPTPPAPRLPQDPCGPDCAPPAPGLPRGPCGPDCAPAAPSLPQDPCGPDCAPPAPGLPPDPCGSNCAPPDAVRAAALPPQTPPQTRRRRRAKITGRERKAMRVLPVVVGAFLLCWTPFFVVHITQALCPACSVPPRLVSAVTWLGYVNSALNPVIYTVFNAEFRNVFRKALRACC
As to conditions: Compound concentration 10.0 uM.

The target of assay [13] is T4, Alpha-2A adrenergic receptor (Homo sapiens) (UniProt P08913).
T4 sequence (whole entry): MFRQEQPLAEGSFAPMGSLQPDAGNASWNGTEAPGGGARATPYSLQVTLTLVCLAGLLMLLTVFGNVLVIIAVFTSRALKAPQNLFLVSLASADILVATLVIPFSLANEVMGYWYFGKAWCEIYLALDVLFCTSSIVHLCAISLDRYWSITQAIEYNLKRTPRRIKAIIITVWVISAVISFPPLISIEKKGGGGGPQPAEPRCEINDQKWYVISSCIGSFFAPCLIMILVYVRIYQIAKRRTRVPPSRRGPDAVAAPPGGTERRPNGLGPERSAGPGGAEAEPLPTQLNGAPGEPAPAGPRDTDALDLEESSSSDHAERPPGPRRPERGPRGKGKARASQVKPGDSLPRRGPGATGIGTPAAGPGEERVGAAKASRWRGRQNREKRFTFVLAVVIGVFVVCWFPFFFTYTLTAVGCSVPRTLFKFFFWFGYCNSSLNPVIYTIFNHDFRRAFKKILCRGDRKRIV
The note with it: Compound concentration 10.0 uM.

For assay [14], the target named is Ribosomal protein S6 kinase beta-2 (Homo sapiens) (UniProt Q9UBS0). Briefly: Inhibition of p70S6Kbeta(h) at 10.0 µM in the Eurofins Kinase panel. As to conditions: Compound concentration 10.0 uM.
The mark [15] stands for this setting: Compound concentration 0.001 uM.

5-hydroxytryptamine receptor 6 (Homo sapiens), sequence (P50406 whole entry): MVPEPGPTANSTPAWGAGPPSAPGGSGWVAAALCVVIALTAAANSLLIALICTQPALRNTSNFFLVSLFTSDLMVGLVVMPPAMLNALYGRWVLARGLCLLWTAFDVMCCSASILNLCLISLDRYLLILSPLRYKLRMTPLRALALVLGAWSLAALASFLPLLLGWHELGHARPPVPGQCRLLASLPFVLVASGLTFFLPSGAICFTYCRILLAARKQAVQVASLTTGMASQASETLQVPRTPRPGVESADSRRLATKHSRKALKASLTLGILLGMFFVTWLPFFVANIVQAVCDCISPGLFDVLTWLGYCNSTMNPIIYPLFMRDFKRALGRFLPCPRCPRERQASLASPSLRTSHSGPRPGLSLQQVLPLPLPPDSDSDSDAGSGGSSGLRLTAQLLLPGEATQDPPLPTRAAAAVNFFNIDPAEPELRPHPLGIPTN
5-hydroxytryptamine receptor 1B (Homo sapiens), sequence (P28222 whole entry): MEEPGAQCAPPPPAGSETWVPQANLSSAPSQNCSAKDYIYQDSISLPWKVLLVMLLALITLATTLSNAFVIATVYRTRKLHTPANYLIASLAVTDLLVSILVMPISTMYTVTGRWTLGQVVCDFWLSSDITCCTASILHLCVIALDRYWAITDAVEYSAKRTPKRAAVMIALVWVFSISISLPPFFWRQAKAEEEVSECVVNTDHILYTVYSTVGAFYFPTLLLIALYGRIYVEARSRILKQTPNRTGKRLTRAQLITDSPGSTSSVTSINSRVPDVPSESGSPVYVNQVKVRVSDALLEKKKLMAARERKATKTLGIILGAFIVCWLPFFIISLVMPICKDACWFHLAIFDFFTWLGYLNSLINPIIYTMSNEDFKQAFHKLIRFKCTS
5-hydroxytryptamine receptor 2B (Homo sapiens), sequence (P41595 whole entry): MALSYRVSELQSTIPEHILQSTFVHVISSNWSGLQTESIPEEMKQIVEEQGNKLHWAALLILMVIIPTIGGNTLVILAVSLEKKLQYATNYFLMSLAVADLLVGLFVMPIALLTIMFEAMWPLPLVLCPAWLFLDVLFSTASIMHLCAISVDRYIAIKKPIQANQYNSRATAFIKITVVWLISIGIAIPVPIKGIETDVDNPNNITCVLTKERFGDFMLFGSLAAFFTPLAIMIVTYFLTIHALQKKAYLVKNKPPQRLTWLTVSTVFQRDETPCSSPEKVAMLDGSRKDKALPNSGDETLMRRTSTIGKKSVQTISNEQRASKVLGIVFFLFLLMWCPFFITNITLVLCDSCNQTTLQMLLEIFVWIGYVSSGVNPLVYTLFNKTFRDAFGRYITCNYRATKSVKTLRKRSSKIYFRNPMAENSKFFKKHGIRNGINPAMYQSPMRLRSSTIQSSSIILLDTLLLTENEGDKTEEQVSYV
Serine/threonine-protein kinase WNK4 (Homo sapiens), sequence (Q96J92 whole entry): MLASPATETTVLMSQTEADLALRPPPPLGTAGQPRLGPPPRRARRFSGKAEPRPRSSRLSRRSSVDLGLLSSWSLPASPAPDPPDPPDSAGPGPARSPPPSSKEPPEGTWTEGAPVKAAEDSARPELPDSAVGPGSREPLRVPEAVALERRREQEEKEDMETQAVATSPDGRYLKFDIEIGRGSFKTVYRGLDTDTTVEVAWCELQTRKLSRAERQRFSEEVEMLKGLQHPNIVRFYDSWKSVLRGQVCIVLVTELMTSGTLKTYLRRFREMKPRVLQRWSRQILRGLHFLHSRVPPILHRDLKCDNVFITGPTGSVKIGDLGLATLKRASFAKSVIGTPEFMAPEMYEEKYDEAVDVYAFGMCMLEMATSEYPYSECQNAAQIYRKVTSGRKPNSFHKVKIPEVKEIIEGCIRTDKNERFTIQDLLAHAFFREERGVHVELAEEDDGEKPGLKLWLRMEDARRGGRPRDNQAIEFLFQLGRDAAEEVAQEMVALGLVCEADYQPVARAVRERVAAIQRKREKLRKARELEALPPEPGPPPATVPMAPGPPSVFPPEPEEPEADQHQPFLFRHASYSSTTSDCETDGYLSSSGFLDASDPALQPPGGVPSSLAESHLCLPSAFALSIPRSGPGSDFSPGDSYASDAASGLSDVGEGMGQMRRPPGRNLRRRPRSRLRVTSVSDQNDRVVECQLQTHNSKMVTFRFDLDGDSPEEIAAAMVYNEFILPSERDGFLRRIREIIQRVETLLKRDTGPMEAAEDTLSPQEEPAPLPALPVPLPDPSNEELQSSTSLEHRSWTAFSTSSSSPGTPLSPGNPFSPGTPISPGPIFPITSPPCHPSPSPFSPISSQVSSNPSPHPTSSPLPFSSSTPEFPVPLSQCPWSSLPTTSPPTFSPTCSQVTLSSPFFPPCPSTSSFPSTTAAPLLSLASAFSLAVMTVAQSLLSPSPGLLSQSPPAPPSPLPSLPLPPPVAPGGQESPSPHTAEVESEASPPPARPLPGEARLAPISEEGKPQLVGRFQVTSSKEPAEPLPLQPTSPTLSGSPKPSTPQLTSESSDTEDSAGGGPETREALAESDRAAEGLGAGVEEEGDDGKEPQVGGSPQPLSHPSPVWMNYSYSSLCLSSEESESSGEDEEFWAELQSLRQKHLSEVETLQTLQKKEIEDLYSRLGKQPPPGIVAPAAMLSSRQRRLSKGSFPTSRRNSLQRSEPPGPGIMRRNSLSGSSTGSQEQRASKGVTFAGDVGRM
Vascular endothelial growth factor receptor 3 (Homo sapiens), sequence (P35916 whole entry): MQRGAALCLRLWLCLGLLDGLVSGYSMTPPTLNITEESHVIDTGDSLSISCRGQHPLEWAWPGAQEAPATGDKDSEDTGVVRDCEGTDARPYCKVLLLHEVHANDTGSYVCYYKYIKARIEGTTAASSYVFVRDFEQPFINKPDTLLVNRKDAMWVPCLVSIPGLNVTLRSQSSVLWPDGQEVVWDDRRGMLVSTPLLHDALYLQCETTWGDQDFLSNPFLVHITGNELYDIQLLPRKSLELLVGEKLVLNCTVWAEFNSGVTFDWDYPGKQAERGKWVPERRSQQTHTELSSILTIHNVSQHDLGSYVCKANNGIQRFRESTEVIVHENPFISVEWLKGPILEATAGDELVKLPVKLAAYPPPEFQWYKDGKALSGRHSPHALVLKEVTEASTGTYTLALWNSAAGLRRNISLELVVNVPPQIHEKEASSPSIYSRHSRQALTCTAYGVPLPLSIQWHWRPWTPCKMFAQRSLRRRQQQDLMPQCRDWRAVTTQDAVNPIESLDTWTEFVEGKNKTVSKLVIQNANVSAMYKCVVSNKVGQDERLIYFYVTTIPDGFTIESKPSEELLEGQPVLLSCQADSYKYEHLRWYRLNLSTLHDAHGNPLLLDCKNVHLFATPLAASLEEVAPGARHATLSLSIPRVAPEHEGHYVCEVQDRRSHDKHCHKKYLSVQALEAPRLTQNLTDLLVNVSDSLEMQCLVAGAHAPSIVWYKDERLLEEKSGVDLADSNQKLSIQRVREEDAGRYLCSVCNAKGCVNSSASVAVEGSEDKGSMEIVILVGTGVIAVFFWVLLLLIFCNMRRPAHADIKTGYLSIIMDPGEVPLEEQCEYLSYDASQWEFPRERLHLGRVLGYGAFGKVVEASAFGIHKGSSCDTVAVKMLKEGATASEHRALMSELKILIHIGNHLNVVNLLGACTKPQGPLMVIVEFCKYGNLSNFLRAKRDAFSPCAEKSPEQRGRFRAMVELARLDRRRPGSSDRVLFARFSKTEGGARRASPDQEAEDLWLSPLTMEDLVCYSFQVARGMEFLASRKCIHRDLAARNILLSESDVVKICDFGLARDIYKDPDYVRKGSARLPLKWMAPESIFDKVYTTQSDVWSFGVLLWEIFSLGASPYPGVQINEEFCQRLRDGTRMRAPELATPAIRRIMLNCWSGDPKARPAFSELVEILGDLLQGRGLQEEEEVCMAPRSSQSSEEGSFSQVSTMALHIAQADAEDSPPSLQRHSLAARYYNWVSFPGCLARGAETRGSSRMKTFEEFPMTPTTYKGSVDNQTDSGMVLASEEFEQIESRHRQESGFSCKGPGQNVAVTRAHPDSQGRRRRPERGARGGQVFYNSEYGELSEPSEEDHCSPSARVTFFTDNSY
Serine/threonine-protein kinase LATS2 (Homo sapiens), sequence (Q9NRM7 whole entry): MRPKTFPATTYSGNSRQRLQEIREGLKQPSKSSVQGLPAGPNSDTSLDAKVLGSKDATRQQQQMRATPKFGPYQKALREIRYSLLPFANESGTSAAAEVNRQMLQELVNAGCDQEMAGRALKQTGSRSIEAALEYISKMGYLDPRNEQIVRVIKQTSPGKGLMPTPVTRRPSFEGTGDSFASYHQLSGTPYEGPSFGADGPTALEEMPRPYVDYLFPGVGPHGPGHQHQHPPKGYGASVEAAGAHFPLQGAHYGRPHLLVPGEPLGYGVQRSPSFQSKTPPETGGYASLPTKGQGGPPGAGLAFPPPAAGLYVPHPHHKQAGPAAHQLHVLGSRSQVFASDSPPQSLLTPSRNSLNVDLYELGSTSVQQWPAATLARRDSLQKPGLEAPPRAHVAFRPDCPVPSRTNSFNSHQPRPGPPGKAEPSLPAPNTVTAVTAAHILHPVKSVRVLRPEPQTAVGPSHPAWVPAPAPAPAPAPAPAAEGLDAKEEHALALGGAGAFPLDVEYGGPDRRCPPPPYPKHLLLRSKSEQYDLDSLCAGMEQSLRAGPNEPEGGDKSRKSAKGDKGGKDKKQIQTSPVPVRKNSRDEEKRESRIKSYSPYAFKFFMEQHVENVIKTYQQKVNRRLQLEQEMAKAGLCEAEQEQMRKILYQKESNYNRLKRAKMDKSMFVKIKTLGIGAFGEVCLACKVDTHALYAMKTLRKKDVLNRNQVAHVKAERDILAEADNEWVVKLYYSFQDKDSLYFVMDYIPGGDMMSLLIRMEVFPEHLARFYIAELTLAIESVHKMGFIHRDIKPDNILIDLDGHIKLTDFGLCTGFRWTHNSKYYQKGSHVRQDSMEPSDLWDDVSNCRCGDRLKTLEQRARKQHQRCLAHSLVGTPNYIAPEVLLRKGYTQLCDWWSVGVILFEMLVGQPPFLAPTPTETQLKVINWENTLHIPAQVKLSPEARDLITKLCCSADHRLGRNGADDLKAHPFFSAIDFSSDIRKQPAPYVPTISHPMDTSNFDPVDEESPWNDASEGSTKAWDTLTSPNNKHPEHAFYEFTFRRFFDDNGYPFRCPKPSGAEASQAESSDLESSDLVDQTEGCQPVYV

`O=c1n(Cc2cncn2-c2cccc(Cl)c2)nc(-c2ccc(Cl)cc2)n1C[C@H](O)C(F)(F)F`: the inhibition is 7% in assay [1] (Compound concentration 10.0 uM); 12% in [2] (Compound concentration 10.0 uM); 4.57% in assay [3]; 11.3% in assay [4]; -2.77% in assay [5]; 5.08% in assay [6]. The inhibition is -2.58% in assay [7]; 2.45% in assay [8]; 7.15% in [9]; 7.98% in [10]; 1.09% in [11]; -4.7% in assay [12]. Further, the inhibition was 5% in [13] and 3.66% in assay [14].

On to `C[C@H](O)c1nc(Cn2nc(-c3ccc(Cl)cc3)n(C[C@H](O)C(F)(F)F)c2=O)nn1-c1cccc(Cl)c1` [PECAVAPTAN], for which the inhibition in assay [1] (setting [15]) is 6%; in assay [1] (Compound concentration 0.01 uM), -6%; in assay [1] (Compound concentration 0.1 uM) it was -5%; in assay [1] (Compound concentration 1.0 uM), 5%; in [1] (Compound concentration 10.0 uM), 43%; in [2] (Compound concentration 0.0001 uM), 3%. Besides, the inhibition in assay [2] (setting [15]) is 6%; in assay [2] (Compound concentration 0.01 uM), 41%; in [2] (Compound concentration 0.1 uM), 84%; in [2] (Compound concentration 1.0 uM), 95%; in [3] it was -5.42%; in assay [4], 4.21%. The inhibition is 1.28% in [5]; 3.15% in assay [6]; -3.44% in assay [7]; 10.5% in assay [8]; 4.87% in assay [9]; 13.1% in [10]. In addition, the inhibition in assay [11] is 17.4%; in assay [12], 19.5%; in [13], 3%; in assay [14] it was 1.85%.
